# According to patent publication US6596766B1, “Utilization of material containing docosapentaenoic acid” (Suntory Limited, priority 1999, dated 2003):
# Assay: Fatty acid composition in the livers of rats fed DHA-containing oil (Example 2)
# Assay type: in vivo, Wistar rats
# Conditions: rat liver, versus control group
# Source text: Four-week-old male Wistar rats were initially raised for one week, and then divided into 2 groups described below.
# perilla oil: safflower oil=7:3
# rapeseed oil: DHA ethyl ester=3:2
# For 4 weeks, the rats were fed experimental diets prepared by mixing 5% of the indicated oils for each of the groups to the basal feed.
# The livers were excised from the raised rats of both groups, and lipids were extracted by the Folch method and upon conversion to the methyl ester, the amount of each fatty acid was analyzed by gas chromatography.
smiles,measurement,value
"CCC=CCC=CCC=CCC=CCC=CCC=CCCC(=O)O [DHA, 4,7, 10, 13, 16, 19-docosahexaenoic acid]",effect on the proportion of ARA in the liver (in words),significant decrease in the proportion of ARA
